# According to PubChem BioAssay (NCI):
#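 Five compound concentrations were applied to cells in 96-well plates for 48 hours; endpoints were derived by simple linear interpolation of the resulting dose-response curve. TGI denotes the concentration required for complete inhibition of growth.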
# Key:
# Assay in all cases: growth of human tumour cells (NCI), 48 h
# ACHN renal = test system: ACHN renal
# OVCAR-5 ovarian = test system: OVCAR-5 ovarian
# A549 NSCLC = test system: A549 NSCLC
# KM12 colon = test system: KM12 colon
# A498 renal = test system: A498 renal
# RPMI-8226 leukemia = test system: RPMI-8226 leukemia
# SNB-78 CNS = test system: SNB-78 CNS
# SNB-19 CNS = test system: SNB-19 CNS
# LOX IMVI melanoma = test system: LOX IMVI melanoma
# KM20L2 colon = test system: KM20L2 colon
# OVCAR-3 ovarian = test system: OVCAR-3 ovarian
# LXFL 529 NSCLC = test system: LXFL 529 NSCLC
# DMS 114 small cell lung = test system: DMS 114 small cell lung
# M14 melanoma = test system: M14 melanoma
# RXF-631 renal = test system: RXF-631 renal
# NCI-H460 lung = test system: NCI-H460 lung
# COLO 205 colon = test system: COLO 205 colon
# SF-268 CNS = test system: SF-268 CNS
# M19-MEL melanoma = test system: M19-MEL melanoma
# OVCAR-4 ovarian = test system: OVCAR-4 ovarian
# HCT-116 colon = test system: HCT-116 colon
# MALME-3M melanoma = test system: MALME-3M melanoma
# UACC-257 melanoma = test system: UACC-257 melanoma
# SK-MEL-5 melanoma = test system: SK-MEL-5 melanoma
# 786-0 renal = test system: 786-0 renal
# SK-MEL-28 melanoma = test system: SK-MEL-28 melanoma
# HL-60(TB) leukemia = test system: HL-60(TB) leukemia
# CAKI-1 renal = test system: CAKI-1 renal
# SF-295 CNS = test system: SF-295 CNS
# CCRF-CEM leukemia = test system: CCRF-CEM leukemia
# NCI-H226 lung = test system: NCI-H226 lung
# SF-539 CNS = test system: SF-539 CNS
# NCI-H522 lung = test system: NCI-H522 lung
# K-562 leukemia = test system: K-562 leukemia
# HOP-92 NSCLC = test system: HOP-92 NSCLC
# UO-31 renal = test system: UO-31 renal
# U251 CNS = test system: U251 CNS
# HCC-2998 colon = test system: HCC-2998 colon
# HT29 colon = test system: HT29 colon
# EKVX NSCLC = test system: EKVX NSCLC
# SN12C renal = test system: SN12C renal
# SK-OV-3 ovarian = test system: SK-OV-3 ovarian
# XF 498 CNS = test system: XF 498 CNS
# RXF 393 renal = test system: RXF 393 renal
# TK-10 renal = test system: TK-10 renal
# MOLT-4 leukemia = test system: MOLT-4 leukemia
# NCI-H23 lung = test system: NCI-H23 lung
# HOP-62 NSCLC = test system: HOP-62 NSCLC
# HOP-18 NSCLC = test system: HOP-18 NSCLC
# SNB-75 CNS = test system: SNB-75 CNS
# HCT-15 colon = test system: HCT-15 colon
# DMS 273 small cell lung = test system: DMS 273 small cell lung
# SW-620 colon = test system: SW-620 colon
# IGROV1 ovarian = test system: IGROV1 ovarian
# SK-MEL-2 melanoma = test system: SK-MEL-2 melanoma
# UACC-62 melanoma = test system: UACC-62 melanoma
# OVCAR-8 ovarian = test system: OVCAR-8 ovarian
# BT-549 breast = test system: BT-549 breast
# DLD-1 colon = test system: DLD-1 colon
# SR leukemia = test system: SR leukemia
# NCI/ADR-RES ovarian = test system: NCI/ADR-RES ovarian
# MDA-MB-231 breast = test system: MDA-MB-231 breast
# T-47D breast = test system: T-47D breast
# MCF7 breast = test system: MCF7 breast
# PC-3 prostate = test system: PC-3 prostate
# DU-145 prostate = test system: DU-145 prostate
# MDA-MB-435 = test system: MDA-MB-435
# HS 578T breast = test system: HS 578T breast
# MDA-N = test system: MDA-N
compound,measurement,setting,value
CC(=O)Nc1ccccc1Sc1ccccc1,TGI,ACHN renal,> 100 µM
same,TGI,OVCAR-5 ovarian,> 100 µM
same,TGI,A549 NSCLC,> 100 µM
same,TGI,KM12 colon,> 100 µM
same,TGI,A498 renal,> 100 µM
same,TGI,RPMI-8226 leukemia,> 100 µM
same,TGI,SNB-78 CNS,> 100 µM
same,TGI,SNB-19 CNS,> 100 µM
same,TGI,LOX IMVI melanoma,> 100 µM
same,TGI,KM20L2 colon,> 100 µM
same,TGI,OVCAR-3 ovarian,> 100 µM
same,TGI,LXFL 529 NSCLC,> 100 µM
same,TGI,DMS 114 small cell lung,> 100 µM
same,TGI,M14 melanoma,> 100 µM
same,TGI,RXF-631 renal,> 100 µM
same,TGI,NCI-H460 lung,> 100 µM
same,TGI,COLO 205 colon,> 100 µM
same,TGI,SF-268 CNS,> 100 µM
same,TGI,M19-MEL melanoma,> 100 µM
same,TGI,OVCAR-4 ovarian,> 100 µM
same,TGI,HCT-116 colon,> 100 µM
same,TGI,MALME-3M melanoma,> 100 µM
same,TGI,UACC-257 melanoma,> 100 µM
same,TGI,SK-MEL-5 melanoma,> 100 µM
same,TGI,786-0 renal,> 100 µM
same,TGI,SK-MEL-28 melanoma,> 100 µM
same,TGI,HL-60(TB) leukemia,> 100 µM
same,TGI,CAKI-1 renal,> 100 µM
same,TGI,SF-295 CNS,> 100 µM
same,TGI,CCRF-CEM leukemia,> 100 µM
same,TGI,NCI-H226 lung,> 100 µM
same,TGI,SF-539 CNS,> 100 µM
same,TGI,NCI-H522 lung,> 100 µM
same,TGI,K-562 leukemia,> 100 µM
same,TGI,HOP-92 NSCLC,> 100 µM
same,TGI,UO-31 renal,> 100 µM
same,TGI,U251 CNS,> 100 µM
same,TGI,HCC-2998 colon,> 100 µM
same,TGI,HT29 colon,> 100 µM
same,TGI,EKVX NSCLC,> 100 µM
same,TGI,SN12C renal,> 100 µM
same,TGI,SK-OV-3 ovarian,> 100 µM
same,TGI,XF 498 CNS,> 100 µM
same,TGI,RXF 393 renal,> 100 µM
same,TGI,TK-10 renal,> 100 µM
same,TGI,MOLT-4 leukemia,> 100 µM
same,TGI,NCI-H23 lung,> 100 µM
same,TGI,HOP-62 NSCLC,> 100 µM
same,TGI,HOP-18 NSCLC,> 100 µM
same,TGI,SNB-75 CNS,> 100 µM
same,TGI,HCT-15 colon,> 100 µM
same,TGI,DMS 273 small cell lung,> 100 µM
same,TGI,SW-620 colon,> 100 µM
same,TGI,IGROV1 ovarian,> 100 µM
same,TGI,SK-MEL-2 melanoma,> 100 µM
same,TGI,UACC-62 melanoma,> 100 µM
same,TGI,OVCAR-8 ovarian,> 100 µM
O=C1C(Cl)=C(N2CCN(C3=C(Cl)C(=O)c4ccccc4C3=O)CC2)C(=O)c2ccccc21,TGI,ACHN renal,3.09 µM
same,TGI,OVCAR-5 ovarian,12.7 µM
same,TGI,A549 NSCLC,28.1 µM
same,TGI,KM12 colon,15.4 µM
same,TGI,A498 renal,13.7 µM
same,TGI,RPMI-8226 leukemia,14 µM
same,TGI,SNB-78 CNS,1.56 µM
same,TGI,SNB-19 CNS,28.7 µM
same,TGI,LOX IMVI melanoma,3.12 µM
same,TGI,KM20L2 colon,14 µM
same,TGI,OVCAR-3 ovarian,3.02 µM
same,TGI,LXFL 529 NSCLC,0.793 µM
same,TGI,DMS 114 small cell lung,2.64 µM
same,TGI,M14 melanoma,2.87 µM
same,TGI,RXF-631 renal,3.46 µM
same,TGI,BT-549 breast,3.12 µM
same,TGI,NCI-H460 lung,13.6 µM
same,TGI,DLD-1 colon,0.937 µM
same,TGI,COLO 205 colon,3.1 µM
same,TGI,SF-268 CNS,6.1 µM
same,TGI,M19-MEL melanoma,2.91 µM
same,TGI,SR leukemia,0.458 µM
same,TGI,OVCAR-4 ovarian,2.94 µM
same,TGI,HCT-116 colon,2.76 µM
same,TGI,MALME-3M melanoma,3.32 µM
same,TGI,UACC-257 melanoma,2.78 µM
same,TGI,SK-MEL-5 melanoma,3.25 µM
same,TGI,786-0 renal,3.26 µM
same,TGI,SK-MEL-28 melanoma,3.48 µM
same,TGI,HL-60(TB) leukemia,1.26 µM
same,TGI,CAKI-1 renal,3.48 µM
same,TGI,SF-295 CNS,21.5 µM
same,TGI,CCRF-CEM leukemia,0.718 µM
same,TGI,NCI-H226 lung,11.8 µM
same,TGI,NCI/ADR-RES ovarian,3.51 µM
same,TGI,MDA-MB-231 breast,3.34 µM
same,TGI,SF-539 CNS,3.15 µM
same,TGI,T-47D breast,2.06 µM
same,TGI,MCF7 breast,3.34 µM
same,TGI,NCI-H522 lung,1.83 µM
same,TGI,PC-3 prostate,20.3 µM
same,TGI,HOP-92 NSCLC,2.4 µM
same,TGI,UO-31 renal,3.39 µM
same,TGI,U251 CNS,6.19 µM
same,TGI,HCC-2998 colon,8.35 µM
same,TGI,HT29 colon,5.27 µM
same,TGI,EKVX NSCLC,4.91 µM
same,TGI,DU-145 prostate,14.4 µM
same,TGI,MDA-MB-435,3.27 µM
same,TGI,SN12C renal,3.09 µM
same,TGI,SK-OV-3 ovarian,28 µM
same,TGI,HS 578T breast,7.12 µM
same,TGI,XF 498 CNS,2.66 µM
same,TGI,RXF 393 renal,3.02 µM
same,TGI,TK-10 renal,3.42 µM
same,TGI,MDA-N,3.29 µM
same,TGI,MOLT-4 leukemia,1.69 µM
same,TGI,NCI-H23 lung,3.11 µM
same,TGI,HOP-62 NSCLC,25.5 µM
same,TGI,SNB-75 CNS,9.86 µM
same,TGI,HCT-15 colon,3.07 µM
same,TGI,DMS 273 small cell lung,5.44 µM
same,TGI,SW-620 colon,2.68 µM
same,TGI,IGROV1 ovarian,4.11 µM
same,TGI,SK-MEL-2 melanoma,3.34 µM
same,TGI,UACC-62 melanoma,3.29 µM
same,TGI,OVCAR-8 ovarian,3.16 µM
COc1ccccc1C1C(C(=O)Nc2ccccc2)=C(C)NC(C)=C1C(=O)Nc1ccccc1,TGI,ACHN renal,> 100 µM
same,TGI,OVCAR-5 ovarian,> 100 µM
same,TGI,KM12 colon,> 100 µM
same,TGI,A498 renal,82.5 µM
same,TGI,RPMI-8226 leukemia,> 100 µM
same,TGI,SNB-78 CNS,> 100 µM
same,TGI,SNB-19 CNS,> 100 µM
same,TGI,LOX IMVI melanoma,> 100 µM
same,TGI,KM20L2 colon,> 100 µM
same,TGI,OVCAR-3 ovarian,> 100 µM
same,TGI,LXFL 529 NSCLC,> 100 µM
same,TGI,DMS 114 small cell lung,> 100 µM
same,TGI,M14 melanoma,> 100 µM
same,TGI,RXF-631 renal,> 100 µM
same,TGI,NCI-H460 lung,> 100 µM
same,TGI,COLO 205 colon,65.2 µM
same,TGI,SF-268 CNS,> 100 µM
same,TGI,M19-MEL melanoma,> 100 µM
same,TGI,OVCAR-4 ovarian,> 100 µM
same,TGI,HCT-116 colon,> 100 µM
same,TGI,MALME-3M melanoma,> 100 µM
same,TGI,UACC-257 melanoma,> 100 µM
same,TGI,SK-MEL-5 melanoma,> 100 µM
same,TGI,786-0 renal,> 100 µM
same,TGI,SK-MEL-28 melanoma,> 100 µM
same,TGI,CAKI-1 renal,> 100 µM
same,TGI,SF-295 CNS,> 100 µM
same,TGI,NCI-H226 lung,> 100 µM
same,TGI,SF-539 CNS,> 100 µM
same,TGI,NCI-H522 lung,> 100 µM
same,TGI,K-562 leukemia,> 100 µM
same,TGI,HOP-92 NSCLC,> 100 µM
same,TGI,UO-31 renal,> 100 µM
same,TGI,U251 CNS,> 100 µM
same,TGI,HCC-2998 colon,> 100 µM
same,TGI,HT29 colon,> 100 µM
same,TGI,EKVX NSCLC,> 100 µM
same,TGI,SN12C renal,> 100 µM
same,TGI,SK-OV-3 ovarian,> 100 µM
same,TGI,XF 498 CNS,> 100 µM
same,TGI,RXF 393 renal,> 100 µM
same,TGI,TK-10 renal,> 100 µM
same,TGI,MOLT-4 leukemia,56.8 µM
same,TGI,NCI-H23 lung,> 100 µM
same,TGI,HOP-62 NSCLC,> 100 µM
same,TGI,HOP-18 NSCLC,> 100 µM
same,TGI,SNB-75 CNS,> 100 µM
same,TGI,HCT-15 colon,> 100 µM
same,TGI,DMS 273 small cell lung,> 100 µM
same,TGI,SW-620 colon,> 100 µM
same,TGI,IGROV1 ovarian,> 100 µM
same,TGI,SK-MEL-2 melanoma,> 100 µM
same,TGI,UACC-62 melanoma,> 100 µM
same,TGI,OVCAR-8 ovarian,> 100 µM
